From patent US9738878B2, “HIV-1 integrase derived peptides and compositions” (priority 2008, dated 2017)
No end group written: not given here.

What was measured:
[1] = molecular target: T1, Rev 53-67 (Human immunodeficiency virus type 1 group M subtype B, UniProt P04618); assay: ELISA-based binding assay, biotinylated-BSA-Rev 53-67 conjugate on peptide-coated plates; set-up: species or system HIV-1
T1 construct: biotinylated-BSA-Rev 13-23 or Rev 53-67 conjugates
Procedure: (§1) Protein-peptide binding was estimated using an ELISA-based binding assay as described previously (Rosenbluh et al., 2006, Anal Biochem 352, 157-168). Briefly, Maxisorp plates (Nunc) were incubated at room temperature for 2 h with 200 μl of 10 μg/ml synthetic peptide in carbonate buffer. After incubation, the solution was removed, the plates were washed three times with PBS, and 200 μl of 10% BSA in PBS (w/v) was added for 2 h at room temperature. […] Following three washes with PBS, the concentration of bound biotinylated molecules was estimated after the addition of streptavidin-horseradish peroxidase (HRP) conjugate (Sigma), as described previously (Melchior et al., 1993, J Cell Biol 123, 1649-1659). The concentration of bound protein molecules was estimated after the addition of anti-GFP mouse antibody (Santa Cruz) which then was interacted with rabbit anti-mouse IgG antibody conjugated to HRP. The enzymatic activity of HRP was estimated by monitoring the product's optical density (OD) at 490 nm using an ELISA plate reader (Tecan Sunrise). Each measurement was performed at least in duplicate.
(§2) Selection of peptide sequences that interact with the Rev protein, Rev-derived peptides, and the IN itself was made by screening of an N peptide library (NIH AIDS Research and Reference Reagent Program, Division of AIDS, NIAID, NIH: HIV-1 Consensus B Pol (15-mer) peptides—Complete Set from DAIDS, NIAID), using an ELISA-based assay system.
(§3) FIG. 1: 1A—Rev-GFP or GFP alone were incubated in ELISA plates coated with either INr-1 (♦, ⋄, respectively), INr-2 (▪, □, respectively) or INS (▴, Δ, respectively) and binding was determined as described above. 1B—The IN protein was first bound to the ELISA plate and then incubated with Rev-GFP to obtain a Rev-IN complex. The complex was then incubated with either one of the INr peptides or the INS peptide at the designated Rev-GFP:peptide ratio. Wells were then washed and the amount of bound Rev-GFP was determined by mouse anti-GFP antibody and secondary rabbit anti-mouse HRP-conjugated antibody. […]

[2] = test system: Rev-GFP; assay: ELISA-based binding assay, Rev-GFP on peptide-coated plates; set-up: species or system HIV-1; conditions: screen of IN peptide library
Procedure: as §1, §2, §3

[3] = molecular target: T2, Rev 13-23 (Human immunodeficiency virus type 1 group M subtype B, UniProt P04618); assay: ELISA-based binding assay, biotinylated-BSA-Rev 13-23 conjugate on peptide-coated plates; set-up: species or system HIV-1
T2 construct: biotinylated-BSA-Rev 13-23 or Rev 53-67 conjugates
Procedure: as §1, §2, §3

[4] = molecular target: T3, IN (Human immunodeficiency virus type 1 group M subtype B, UniProt P12497); assay: IN enzymatic activity assay; assay type: biochemical, HIV-1; conditions: for integrase activity inhibited by Rev-derived peptide, restoration: molar ratio 1:10 (Rev peptide:INr peptide)
T3 construct: The histidine-tagged IN expression vector was a generous gift from Dr. A. Engelman; histidine tag; made in house
Procedure: The IN enzymatic activity assay was performed using a previously described assay system (Craigie et al., 1991, Nucleic Acids Res 19, 2729-2734, Hwang et al., 2000, Nucleic Acids Res 28, 4884-4892). Briefly, the oligonucleotide substrate consisted of one oligo (5′-[…]-3′) labeled with biotin at the 3′ end and the other oligo (5′-[…]-3′) labeled with digoxigenin at the 5′ end. When inhibition was studied, the IN was preincubated with the peptide or protein for 15 min prior to addition of the DNA substrate.
FIG. 2 (A) Rev-GFP (dark green) or GFP (turquoise) were incubated at different molar ratios with IN (390 nM) and the IN enzymatic activity was determined as described above. (B) Rev-GFP was preincubated with the indicated INS peptide at a molar ratio of 5:1 (peptide:Rev-GFP) and the resultant mixture was added to a solution containing IN to give a molar ratio of 1:200 and 1:400 (IN:Rev-GFP). Following an incubation period, IN activity was estimated as described above. (C) Same as (B) but with the INrs peptides.
FIG. 3 A-C IN (390 nM) was incubated with 50 μM of the Rev-derived peptides (1:300 IN:Rev-derived peptide, Rev13-23 or Rev 53-67) and then the INS peptide was added at different molar ratios ranging from 10:1 to 1:10 (Rev peptide:INS peptide) (A) IN (390 nM) was incubated with 50 μM of the Rev-derived peptides (1:300 IN:Rev-derived peptide), (Rev13-23 (B) and Rev 53-67 (C)) and then the INr peptides were added at different molar ratios ranging from 10:1 to 1:10 (Rev peptide:INr peptide).

[5] = test system: HeLa cells; assay: Cell-penetration experiments, fluorescein-labeled peptides, confocal microscopy; assay type: cell-based; conditions: fluorescein-labeled peptide 10 μM
Procedure: Fluorescein-labeled peptides at a final concentration of 10 μM in PBS were incubated with HeLa cells for 1 h at 37° C.
The cells were then washed three times with PBS and visualized by a confocal microscope. […] (C) same as (B) but in H9 lymphocytes

[6] = test system: HIV-1 DNA integration; assay: Copy numbers of HIV-1 DNA integrated into cellular genome, real-time PCR; assay type: cell-based; conditions: H9 cells, 24 hours post infection, single cycle of infection, Δenv/VSV-G HIV-1
Procedure: During the second-round PCR, the first-round PCR product could be specifically amplified by using the tag-specific primer (tag-F 5′-[…]-3′) and the LTR primer (LTR-R 5′-[…]-3′) designed by PrimerExpress (Applied Biosystems) using default settings. The second-round PCR was performed on 1/25th of the first-round PCR product in a mixture containing 300 nM of each primer, 12.5 μl of 2λ SYBR Green master mixture (Applied Biosystems) at a final volume of 25 μl, run on an ABI PRIZM 7700 (Applied Biosystems).
For generation a standard calibration curve, the SVC21 plasmid containing the full-length HIV-1HXB2 viral DNA was used as a template. In the first-round PCR, the LTR-TAG-F and LTR-R primers were used and the second-round PCR was performed using the tag-F and LTR-R primers. The standard linear curve was in the range of 5 ng to 0.25 fg (R=0.99). DNA samples were assayed with quadruplets of each sample. The cell equivalents in the sample DNA were calculated based on amplification of the 18S gene by real-time PCR as described in (Field et al, 2002, Biochem J 368, 855-864).
. (B) H9 T-lymphoid cells were incubated with the indicated peptides (12.5 μM) or AZT (2 μM) and following HIV-1 infection, the integrated viral DNA/cell was assessed by real-time PCR following a single cycle of infection at a MOI of 5 of Δenv/VSV-G HIV-1.

[7] = molecular target: T3, IN; assay: ELISA-based binding assay, IN protein; set-up: species or system HIV-1
Procedure: Each measurement was performed at least in duplicate.
Selection of peptide sequences that interact with the Rev protein, Rev-derived peptides, and the IN itself was made by screening of an N peptide library (NIH AIDS Research and Reference Reagent Program, Division of AIDS, NIAID, NIH: HIV-1 Consensus B Pol (15-mer) peptides—Complete Set from DAIDS, NIAID), using an ELISA-based assay system. […] This observation further confirmed that the sequence of the NS and INrs peptides within the N protein mediate the interaction with the Rev protein. The NS peptide interacted with both Rev 13-23 and Rev 53-67 peptides while Nr-1 and Nr-2 interacted with the Rev 53-67 and Rev 13-23 peptides respectively (FIG. 1D and Table 1). […] This was inferred from experiments showing that biotinylated-BSA-Rev 13-23 or Rev 53-67 conjugates were able to interact with NS or INrs peptides-coated plates (FIGS. 1C and 1D).

[8] = test system: HIV-1 infected lymphocyte cells; assay: Lysis of HIV-1 infected cells after one cycle of infection, MTT; conditions: 62.5-150 μM, ΔENV/VSV-G HIV-1 MOI 10, MTT 48 h post infection
[9] = test system: HIV-1
Procedure: Quantitative titration of HIV-1 was carried out using the MAGI assay, as described by Kimpton and Emerman (J Virol 1992, 66, 2232-2239). […] Two days post-infection (PI), cultured cells were fixed and ƒl-galactosidase was estimated as described above. Blue cells were counted under a light microscope at 200× magnification.
The concentration of azidothymidine (AZT) used was 2 μM.

[10] = test system: HIV-1; conditions: H9 and Sup-T1 cells, peptide 12.5 μM
Procedure: Cultured lymphocytes (1×10^5) were centrifuged for 5 min at 2000 rpm and after removal of the supernatant, the cells were resuspended in 0.2 to 0.5 ml of RPMI 1640 medium containing virus at a multiplicity of infection (MOI) of 0.01, 0.1 and 5. Following absorption for 2 h at 37° C., the cells were washed to remove unbound virus and then incubated at the same temperature for an additional 1 to 8 days.
Lymphoid cells were incubated with the indicated peptides for 2 h and following infection with wild-type HIV-1 at a MOI of 0.01 (as described above), the cells were incubated for 8 days, or 48 h at a MOI of 1. The amount of p24 protein was estimated in the cell medium every 2 days exactly as described previously.
The amount of viral P24 (A and B) and virus titer (C and D) were determined every 2 days by ELISA and MAGI assay (Kimpton 1992, J Virol 66, 2232-2239), respectively. The concentration of azidothymidine (AZT) used was 2 μM.

[11] = Survival of HIV-1 infected and uninfected Hela cells; assay type: cell-based; conditions: human, uninfected HeLa cells, read-out: intact viable uninfected Hela cells
Procedure: FIG. 7 Percentage of viable infected and uninfected Hela cells normalized every two days to the number of cells in the non treated non infected cells sample. Cells were infected with WT HIV-1 at MOI of 0.01 and the treated cells were added 12.5 μM of INS.

[12] = test system: Rev-IN complex; conditions: peptide added to preformed complex
[13] = test system: HeLa TZM-b1 cells; assay: Cell viability, MTT assay; assay type: cell-based; conditions: up to about 62 μM

Sequence	interaction with Rev 53-67 peptide [1]	interaction with Rev-GFP [2]	interaction with Rev 13-23 peptide [3]	abrogation of inhibitory effect of Rev 13-23 peptide on IN activity ([4]; IN 390 nM, Rev peptide 50 μM)	integrase activity inhibited by Rev-derived peptide, restoration [4]	cell penetration [5]	stimulation of integration per cell [6]	interaction with the IN protein itself [7]	cell death after one cycle of infection [8]	enzymatic activity of HIV-1 IN ([4]; in the absence of the inhibitory Rev peptide)	integrase activity inhibited by Rev-derived peptides, restoration ([4]; molar ratio Rev:INS peptide 1:5)	integrase activity in presence of Rev-derived peptides ([4]; molar ratio Rev:INS peptide 1:10)	abrogation of Rev-GFP inhibition of IN activity ([4]; peptide:Rev-GFP 5:1, IN:Rev-GFP 1:200 and 1:400)	appearance of infectious viral particles [9]	appearance of viral p24 antigen [10]	viability at 12.5 µM [11]	release of bound Rev-GFP from the complex formed between IN and Rev-GFP [12]	cell toxicity [13]	abrogation of inhibitory effect of Rev 53-67 peptide on IN activity ([4]; IN 390 nM, Rev peptide 50 μM)
WGSNFTSTTVKA [INr-2]	not with Rev 53-67	specifically interacting	interacted	abrogated the inhibitory effect	fully restored	–	–	–	–	–	–	–	–	–	–	–	–	–	–
WTAVQMAVFIHNFKRK [INS]	interacted	specifically interacting	interacted	–	–	cell-permeable	2- to 5 fold	interact	induce killing of only infected lymphocyte cells	significantly stimulated	fully restored	stimulate the IN activity	abrogated the inhibitory activities of Rev-GFP	stimulation	Stimulation	~100%	induces the release of the bound Rev-GFP	non-toxic	–
WTHLEGKIILVAVHVA [INr-1]	interacted	specifically interacting	not with the Rev 13-23 peptide	–	fully restored	–	–	–	–	–	–	–	–	–	–	–	–	–	abrogated the inhibitory effect
